Values quoted from earlier work in patent US8580852B2, “2-oxamide inhibitors of phospholipase A2 activity and cellular arachidonate release based on dipeptides and pseudopeptides” (The Regents of the University of California, priority 2009, dated 2013).
Marks after values point to notes of the source that are not given here.

What was measured:
GIVA cPLA2 = target: T1, GIVA cPLA2 (Homo sapiens, UniProt P47712); conditions: reference inhibitors; data taken from ref 15; cited from earlier work
T1 sequence (P47712 1-749): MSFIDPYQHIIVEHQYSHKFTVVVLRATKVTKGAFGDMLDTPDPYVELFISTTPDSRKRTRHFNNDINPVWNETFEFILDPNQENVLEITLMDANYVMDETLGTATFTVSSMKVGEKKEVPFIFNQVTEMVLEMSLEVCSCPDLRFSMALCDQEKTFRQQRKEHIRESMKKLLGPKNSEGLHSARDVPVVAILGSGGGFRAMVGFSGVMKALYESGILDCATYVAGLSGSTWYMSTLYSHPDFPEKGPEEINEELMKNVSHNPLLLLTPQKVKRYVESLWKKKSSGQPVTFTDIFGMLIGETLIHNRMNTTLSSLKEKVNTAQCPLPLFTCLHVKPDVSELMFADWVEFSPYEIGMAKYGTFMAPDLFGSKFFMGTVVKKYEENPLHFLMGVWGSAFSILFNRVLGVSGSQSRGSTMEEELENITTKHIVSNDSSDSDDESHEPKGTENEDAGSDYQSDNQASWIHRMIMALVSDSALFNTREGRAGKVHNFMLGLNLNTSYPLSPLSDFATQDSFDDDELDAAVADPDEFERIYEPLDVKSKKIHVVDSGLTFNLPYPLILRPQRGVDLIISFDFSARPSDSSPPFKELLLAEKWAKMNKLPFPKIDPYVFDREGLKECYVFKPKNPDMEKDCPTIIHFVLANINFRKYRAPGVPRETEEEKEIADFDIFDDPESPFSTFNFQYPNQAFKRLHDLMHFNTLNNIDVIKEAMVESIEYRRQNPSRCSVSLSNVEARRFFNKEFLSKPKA

GVIA iPLA2 = target: T2, GVIA iPLA2 (Homo sapiens, UniProt O60733); conditions: reference inhibitors; data taken from ref 15; cited from earlier work
T2 sequence (O60733 1-806): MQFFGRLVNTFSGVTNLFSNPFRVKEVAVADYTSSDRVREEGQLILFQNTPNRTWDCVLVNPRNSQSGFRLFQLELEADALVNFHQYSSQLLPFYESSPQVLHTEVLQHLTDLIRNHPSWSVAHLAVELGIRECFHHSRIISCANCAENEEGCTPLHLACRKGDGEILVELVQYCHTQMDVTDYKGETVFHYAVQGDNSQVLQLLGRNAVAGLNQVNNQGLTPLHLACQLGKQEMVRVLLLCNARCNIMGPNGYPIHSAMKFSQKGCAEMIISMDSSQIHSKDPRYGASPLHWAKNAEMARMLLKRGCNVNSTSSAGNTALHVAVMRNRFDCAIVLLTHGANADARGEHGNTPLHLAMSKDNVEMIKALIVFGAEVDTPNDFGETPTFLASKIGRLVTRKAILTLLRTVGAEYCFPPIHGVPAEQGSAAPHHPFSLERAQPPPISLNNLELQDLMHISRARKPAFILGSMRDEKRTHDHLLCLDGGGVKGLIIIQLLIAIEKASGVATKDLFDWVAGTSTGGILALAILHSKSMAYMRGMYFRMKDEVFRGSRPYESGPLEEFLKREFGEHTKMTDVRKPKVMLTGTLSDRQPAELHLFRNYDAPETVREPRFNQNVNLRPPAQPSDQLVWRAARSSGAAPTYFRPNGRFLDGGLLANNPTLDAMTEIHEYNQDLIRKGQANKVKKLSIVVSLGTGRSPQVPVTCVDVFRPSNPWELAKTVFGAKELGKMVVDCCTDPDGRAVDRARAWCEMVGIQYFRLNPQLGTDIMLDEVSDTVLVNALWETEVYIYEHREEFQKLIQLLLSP

In the case of `CCCCCCCCCCCCCCC(=O)C(=O)NCCCC(=O)OCC` [AX048, reference compound], the “GIVA cPLA2 X1(50)” value (GIVA cPLA2) is given as 0.022 ± 0.009^b mole fraction and the “GVIA iPLA2 X1(50)” value (GVIA iPLA2) is given as 0.027 ± 0.009^b mole fraction.
